Experimental data as given in PubChem BioAssay (NCI).
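Each compound was tested at five concentrations against cells in 96-well plates for 48 hours. Definition used: TGI = concentration required for complete inhibition of growth.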

Columns and labels:
Assay in all cases: NCI anticancer screen, dose series, 48 h
DLD-1 colon = tested on: DLD-1 colon
DMS 114 small cell lung = tested on: DMS 114 small cell lung
NCI-H460 lung = tested on: NCI-H460 lung
SN12C renal = tested on: SN12C renal
SR leukemia = tested on: SR leukemia
HCT-15 colon = tested on: HCT-15 colon
NCI-H522 lung = tested on: NCI-H522 lung
NCI-H226 lung = tested on: NCI-H226 lung
RPMI-8226 leukemia = tested on: RPMI-8226 leukemia
SK-OV-3 ovarian = tested on: SK-OV-3 ovarian
DMS 273 small cell lung = tested on: DMS 273 small cell lung
MOLT-4 leukemia = tested on: MOLT-4 leukemia
A498 renal = tested on: A498 renal
HT29 colon = tested on: HT29 colon
SK-MEL-28 melanoma = tested on: SK-MEL-28 melanoma
RXF 393 renal = tested on: RXF 393 renal
SK-MEL-5 melanoma = tested on: SK-MEL-5 melanoma
OVCAR-4 ovarian = tested on: OVCAR-4 ovarian
SF-295 CNS = tested on: SF-295 CNS
786-0 renal = tested on: 786-0 renal
SW-620 colon = tested on: SW-620 colon
SK-MEL-2 melanoma = tested on: SK-MEL-2 melanoma
HCT-116 colon = tested on: HCT-116 colon
UACC-257 melanoma = tested on: UACC-257 melanoma
HOP-62 NSCLC = tested on: HOP-62 NSCLC
HL-60(TB) leukemia = tested on: HL-60(TB) leukemia
MALME-3M melanoma = tested on: MALME-3M melanoma
HCC-2998 colon = tested on: HCC-2998 colon
LXFL 529 NSCLC = tested on: LXFL 529 NSCLC
XF 498 CNS = tested on: XF 498 CNS
HOP-92 NSCLC = tested on: HOP-92 NSCLC
KM12 colon = tested on: KM12 colon
A549 NSCLC = tested on: A549 NSCLC
TK-10 renal = tested on: TK-10 renal
SNB-19 CNS = tested on: SNB-19 CNS
COLO 205 colon = tested on: COLO 205 colon
OVCAR-5 ovarian = tested on: OVCAR-5 ovarian
CAKI-1 renal = tested on: CAKI-1 renal
M14 melanoma = tested on: M14 melanoma
SNB-75 CNS = tested on: SNB-75 CNS
LOX IMVI melanoma = tested on: LOX IMVI melanoma
ACHN renal = tested on: ACHN renal
RXF-631 renal = tested on: RXF-631 renal
SF-268 CNS = tested on: SF-268 CNS
SNB-78 CNS = tested on: SNB-78 CNS
NCI-H23 lung = tested on: NCI-H23 lung
CCRF-CEM leukemia = tested on: CCRF-CEM leukemia
UACC-62 melanoma = tested on: UACC-62 melanoma
K-562 leukemia = tested on: K-562 leukemia
SF-539 CNS = tested on: SF-539 CNS
UO-31 renal = tested on: UO-31 renal
EKVX NSCLC = tested on: EKVX NSCLC
U251 CNS = tested on: U251 CNS
KM20L2 colon = tested on: KM20L2 colon
IGROV1 ovarian = tested on: IGROV1 ovarian
M19-MEL melanoma = tested on: M19-MEL melanoma
HOP-18 NSCLC = tested on: HOP-18 NSCLC
OVCAR-8 ovarian = tested on: OVCAR-8 ovarian
OVCAR-3 ovarian = tested on: OVCAR-3 ovarian

Measured: TGI

O=C(NN1C(=O)CS(=O)(=O)C1c1cccc(F)c1)c1ccncc1 (stereo not given)
not listed: SNB-78 CNS | NCI-H23 lung | CCRF-CEM leukemia | UACC-62 melanoma | K-562 leukemia | SF-539 CNS | UO-31 renal | EKVX NSCLC | U251 CNS | KM20L2 colon | IGROV1 ovarian | M19-MEL melanoma | HOP-18 NSCLC | OVCAR-8 ovarian | OVCAR-3 ovarian
> 100 µM: all other assays above

CCOC(=O)C(=O)Nc1ccc(C)c(C)c1
> 93.8 µM: KM12 colon
20 µM: SW-620 colon
> 55.4 µM: HCT-15 colon
> 56.5 µM: DMS 114 small cell lung
32.2 µM: COLO 205 colon
not listed: SR leukemia | XF 498 CNS | HOP-92 NSCLC | HOP-18 NSCLC | OVCAR-8 ovarian | OVCAR-3 ovarian
> 100 µM: all other assays above

CC(CC[C@@H](C)C1CCC2[C@@H]3CC(O)C4CC(O)[C@@H](O)C[C@]4(C)C3CC[C@@]21C)C(C)(C)C (stereo not given in full)
not listed: NCI-H522 lung | RXF-631 renal
> 100 µM: all other assays above

O=C1CCCCCCCCCCC(=O)N2CCOCCOCCN1Cc1cccc(n1)C2
not listed: SR leukemia | HL-60(TB) leukemia | XF 498 CNS | HOP-92 NSCLC | HOP-18 NSCLC
> 100 µM: all other assays above

CC1CC(c2ccc([N+](=O)[O-])cc2)=Nc2ccccc2S1 (stereo not given)
76.1 µM: TK-10 renal | OVCAR-5 ovarian
26.3 µM: HT29 colon
45.3 µM: SF-295 CNS
41.7 µM: DMS 273 small cell lung
36.1 µM: A498 renal
35.1 µM: SN12C renal
32.9 µM: SF-539 CNS
38.1 µM: HCC-2998 colon
35.9 µM: UACC-257 melanoma
29.5 µM: 786-0 renal
25.5 µM: DLD-1 colon
39.5 µM: SNB-19 CNS
32.2 µM: SK-MEL-28 melanoma
63.6 µM: MOLT-4 leukemia
42.4 µM: SK-MEL-5 melanoma
29.6 µM: SW-620 colon
36.6 µM: DMS 114 small cell lung | KM20L2 colon
25.3 µM: KM12 colon
24.9 µM: SR leukemia | UO-31 renal
89.7 µM: HOP-92 NSCLC
27.2 µM: M14 melanoma
48.6 µM: EKVX NSCLC
35.4 µM: IGROV1 ovarian
32 µM: RXF 393 renal
40.3 µM: K-562 leukemia
55.1 µM: COLO 205 colon
7.21 µM: RPMI-8226 leukemia
60.1 µM: A549 NSCLC
3.56 µM: HCT-116 colon
39.1 µM: CCRF-CEM leukemia
46.6 µM: NCI-H226 lung
70.7 µM: XF 498 CNS
26 µM: LXFL 529 NSCLC
34.2 µM: NCI-H23 lung
43.9 µM: OVCAR-4 ovarian
31 µM: SK-OV-3 ovarian
38.9 µM: SF-268 CNS
20.6 µM: LOX IMVI melanoma
44.2 µM: ACHN renal
83.5 µM: CAKI-1 renal
41.9 µM: NCI-H522 lung
28.4 µM: U251 CNS
26.7 µM: M19-MEL melanoma
28.8 µM: UACC-62 melanoma
36.4 µM: HL-60(TB) leukemia
29.3 µM: HCT-15 colon
23.7 µM: OVCAR-3 ovarian
not listed: SK-MEL-2 melanoma | RXF-631 renal
> 100 µM: all other assays above
